# “Also recorded” adds a separate entry of the source.
# System: choroidal neovascularization (CNV)
# Experiment: Rodent model of surgically (laser) induced CNV, intravitreal injection, fluorescein angiography lesion areas
# Type: in vivo, Brown Norway rats
# Parameters: Mean of lesion areas, Left Eye (OS) / Mean of lesion areas, Both Eyes (OU): unit not given here
# Settings: for fluorescein leakage in fluorescein angiography images: sample animal
# Text: In one example, twenty-four (24) naïve, male Brown Norway rats, 225-250 g at study start, are acclimated for a minimum of 5 days prior to dosing. Animals are weighed prior to dosing and at euthanasia. All animals undergo pre-screening ophthalmic examinations prior to study start as follows:
# CNV is then induced via laser treatment (e.g. laser photocoagulation (20-100-μm spot size; 0.05-0.1 seconds duration; 50 to 200 mW) at six positions of the posterior pole in each eye) by a board certified veterinary ophthalmologist. Only animals in which the laser produces a bubble indicating rupture of Bruch's membrane, are included in the study. The compound is administered in suitable form of a Test Article. Test and Control Article treatment begin 3 days post laser induction. In another experiment, the Test and Control Article treatments begin prior to or immediately post induction, in yet other experiments, Test and Control Article treatments begin 10 days post induction. Study duration is 3 weeks, with the option to extend on a weekly basis based on extent of healing. Animals have clinical ophthalmic examinations and fluorescein angiography approximately 3 days post-induction (prior to Test Article treatment) to confirm disease state. The route of administration for Test Article(s) and vehicle control is intravitreal (IVT) injection on Day 1, which is approximately 3-4 days post-induction, once the CNV disease state has been confirmed.
# In the first experiment, a low dose (5 μL at 3.7 mg/mL) and a high dose (5 μL at 7.8 mg/mL) of the compound are evaluated against vehicle control. The three treatment groups are (N=8 per group, 24 animals total):
# A. Test Article—Low Dose (19 μg/eye)
# B. Test Article—High Dose (39 μg/eye)
# Daily gross ocular observations and general health observations are performed. Additional exams, performed weekly up to 3 weeks post Test Article dosing, include clinical ophthalmic exams, slit-lamp biomicroscopy, indirect ophthalmoscopy, and fluorescein staining if needed. Ocular findings are scored using the McDonald-Shadduck scoring system.
# Fluorescein angiography (e.g. using Heidelberg SPECTRALIS® instrumentation) is performed to determine the degree of neovascularization (NV) in the retina and/or choroid. After fluorescein angiography, tissues are then harvested for possible future analysis (e.g. eyes are fixed in Davidson's solution and then transferred to 70% ethanol). Alternatively, the area of retinal and/or choroidal NV can be determined in various other ways. In one example, prior to sacrifice, the rodents are perfused with PBS containing 50 mg/mL of fluorescein-labeled dextran (2×10^6 Da average molecular mass). Alternatively, fluorescein-labeled Lycopersicon esculentum (tomato) lectin can be used. The choroids are then flat mounted and examined by fluorescence microscopy. A standard image analysis software is then used to measure the total area of retinal/choroidal NV with the investigator masked with respect to treatment group.
# Results from an initial experiment treating animals with a control vehicle, low dose (19 μg/eye), or high dose (39 μg/eye) of Compound 7 are shown in FIGS. 1-6.
# Animals were dosed on Day 3. […] The surrounding regions around the laser burn continued to show a higher fluorescence from Days 3-14. Day 9 intensities were attenuated due to the presence of fluorescein in both the anterior and posterior chambers of the eye.
# FIGS. 4-6 and Tables 1-3 below show Mean (±SEM) of lesion areas in the right, left and both eyes, respectively.
# [1] = High Dose (39 μg/eye, 5 μL at 7.8 mg/mL) IVT, Day 3 (prior to dosing)
# [2] = High Dose (39 μg/eye, 5 μL at 7.8 mg/mL) IVT, Day 9
# [3] = High Dose (39 μg/eye, 5 μL at 7.8 mg/mL) IVT, Day 14
# [4] = High dose (39 μg/eye) IVT, Day 3 (baseline)
# [5] = High dose (39 μg/eye) IVT, Day 9
# [6] = High dose (39 μg/eye) IVT, Day 14
# [7] = Low Dose (19 μg/eye, 5 μL at 3.7 mg/mL) IVT, Day 3 (prior to dosing)
# [8] = Low Dose (19 μg/eye, 5 μL at 3.7 mg/mL) IVT, Day 9
# [9] = Low Dose (19 μg/eye, 5 μL at 3.7 mg/mL) IVT, Day 14
# [10] = Low dose (19 μg/eye) IVT, Day 3 (baseline)
# [11] = Low dose (19 μg/eye) IVT, Day 9
# [12] = Low dose (19 μg/eye) IVT, Day 14
smiles,measurement,setting,value
"O=C(O)CNC(=O)c1ncc(-c2cccc(F)c2)cc1O [Compound 7, {[5-(3-fluorophenyl)-3-hydroxypyridine-2-carbonyl]amino} acetic acid]","Mean of lesion areas, Both Eyes (OU)",[1],4.21
same,"Mean of lesion areas, Left Eye (OS)",[1],3.86
same,"Mean of lesion areas, Right Eye (OD)",[1],4.56
same,"Mean of lesion areas, Both Eyes (OU)",[2],1.71
same,"Mean of lesion areas, Left Eye (OS)",[2],1.68
same,"Mean of lesion areas, Right Eye (OD)",[2],1.75
same,"Mean of lesion areas, Both Eyes (OU)",[3],0.71
same,"Mean of lesion areas, Left Eye (OS)",[3],0.84
same,"Mean of lesion areas, Right Eye (OD)",[3],0.58
same,"percentage area reduction of lesion areas, Both Eyes",[4],0.00%
same,"percentage area reduction of lesion areas, Left Eye",[4],0.00%
same,"percentage area reduction of lesion areas, Right Eye",[4],0.00%
same,"percentage area reduction of lesion areas, Both Eyes",[5],−53.83%
same,"percentage area reduction of lesion areas, Left Eye",[5],−46.66%
same,"percentage area reduction of lesion areas, Right Eye",[5],−61.00%
same,"percentage area reduction of lesion areas, Both Eyes",[6],−83.63%
same,"percentage area reduction of lesion areas, Left Eye",[6],−79.77%
same,"percentage area reduction of lesion areas, Right Eye",[6],−87.49%
same,"Mean of lesion areas, Both Eyes (OU)",[7],3.74
same,"Mean of lesion areas, Left Eye (OS)",[7],3.48
same,"Mean of lesion areas, Right Eye (OD)",[7],4.01
same,"Mean of lesion areas, Both Eyes (OU)",[8],1.84
same,"Mean of lesion areas, Left Eye (OS)",[8],1.81
same,"Mean of lesion areas, Right Eye (OD)",[8],1.88
same,"Mean of lesion areas, Both Eyes (OU)",[9],0.96
same,"Mean of lesion areas, Left Eye (OS)",[9],1.02
same,"Mean of lesion areas, Right Eye (OD)",[9],0.90
same,"percentage area reduction of lesion areas, Both Eyes",[10],0.00%
same,"percentage area reduction of lesion areas, Left Eye",[10],0.00%
same,"percentage area reduction of lesion areas, Right Eye",[10],0.00%
same,"percentage area reduction of lesion areas, Both Eyes",[11],−48.43%
same,"percentage area reduction of lesion areas, Left Eye",[11],−44.39%
same,"percentage area reduction of lesion areas, Right Eye",[11],−52.47%
same,"percentage area reduction of lesion areas, Both Eyes",[12],−73.63%
same,"percentage area reduction of lesion areas, Left Eye",[12],−68.00%
same,"percentage area reduction of lesion areas, Right Eye",[12],−79.25%
same,vascular leakage in the ocular vasculature compared with vehicle control (lesion areas over time),"low dose and high dose, FIGS. 4-6 (OD, OS, OU)",reduction of vascular leakage
same,overall fluorescence and leakage compared to animals treated with vehicle control,low or high doses (19 or 39 μg/eye) IVT,reduced overall fluorescence and leakage
same,fluorescein leakage in fluorescein angiography images,"high dose (5 μL at 7.8 mg/mL), Day 9",Lower fluorescence leakage
same,fluorescein leakage in fluorescein angiography images,"high dose (5 μL at 7.8 mg/mL), Day 14",no fluorescein leakage was observed; also recorded: no fluorescence leakage
same,fluorescein leakage in fluorescein angiography images,"low dose (5 μL at 3.7 mg/mL), Day 9",Lower fluorescence leakage
same,fluorescein leakage in fluorescein angiography images,"low dose (5 μL at 3.7 mg/mL), Day 14",almost subsided completely; also recorded: minimal fluorescence leakage

# Source: patent US20160339005A1, “COMPOSITIONS AND METHODS FOR TREATING OCULAR DISEASES” (AKEBIA THERAPEUTICS, INC., priority 2014, published 2016)
